Measured values reported in paper PMC12519464, “Dual-Site Inhibition of SARS-CoV‑2 RNA-Dependent RNA Polymerase by Small Molecules Able to Block Viral Replication Identified through a Computer-Aided Drug Discovery Approach” (ACS Infectious Diseases, 2025).

The compounds below were run against SARS-CoV-2 nsp12/7/8 (RTC) complex (Severe acute respiratory syndrome coronavirus 2, UniProt P0DTD1) (assay: biochemical). Details: not given.
Type: biochemical
Compound `CC(=O)OC(C)(C)/C=C/C(=O)[C@](C)(O)[C@H]1[C@H](O)C[C@@]2(C)[C@@H]3CC=C4[C@@H](C=C(O)C(=O)C4(C)C)[C@]3(C)C(=O)C[C@]12C` [Cucurbitacin E] has an IC50 of 47.2 ± 20.5 µM. `O=C(c1cccc(-c2nc3ccccc3[nH]2)n1)N1CCN(C(=O)c2cccc(-c3nc4ccccc4[nH]3)n2)CC1` [Omilancor, reference compound] was tested, and the IC50 was > 100 µM. Work on `CC1(C)[C@@H](OC(=O)CCC(=O)O)CC[C@]2(C)[C@H]3C(=O)C=C4[C@@H]5C[C@@](C)(C(=O)O)CC[C@]5(C)CC[C@@]4(C)[C@]3(C)CC[C@@H]12` [Carbenoxolone, reference compound] yielded an IC50 of 55.8 ± 8.66 µM. `CN(C(=O)c1ccc(F)cc1C(F)(F)F)C1CCN(c2nnc(-c3ccnn3C)c3ccccc23)CC1` [Taladegib, reference compound] was tested, and the IC50 was > 100 µM. `CC1(C)CC[C@]2(C(=O)O[C@@H]3O[C@H](CO)[C@@H](O)[C@H](O)[C@H]3O)CC[C@]3(C)C(=CC[C@@H]4[C@@]5(C)CC[C@H](O[C@@H]6O[C@H](C(=O)O)[C@@H](O)[C@H](O)[C@H]6O[C@@H]6OC[C@@H](O)[C@H](O)[C@H]6O)C(C)(C)[C@@H]5CC[C@]43C)[C@@H]2C1` [Pseudoginsenoside Rt1] was tested, and the IC50 was 49.3 ± 5.86 µM. For `CC(C)C1=CC(=O)[C@](C)([C@H]2[C@H](O)C[C@@]3(C)[C@@H]4CC=C5[C@@H](CC[C@@H](O[C@@H]6OC[C@@H](O)[C@H](O)[C@H]6O[C@@H]6O[C@@H](C)[C@H](O)[C@@H](O)[C@H]6O)C5(C)C)[C@]4(C)C(=O)C[C@]23C)O1` (racemic) [Picfeltarracemin Ia], the IC50 was > 100 µM. `C[C@H]1[C@H](C)CC[C@]2(C(=O)O)CC[C@]3(C)C(=CC[C@@H]4[C@@]5(C)CCC(=O)C(C)(C)[C@@H]5CC[C@]43C)[C@H]12` [Ursonic acid] showed an IC50 of 26.5 ± 12.6 µM. `CC1=C(/C=C/C(C)=C/C=C/C(C)=C/C(=O)Nc2ccc(O)cc2)C(C)(C)CCC1` [Fenretinide, reference compound] was tested, and the IC50 was > 100 µM. `C[C@@H]1CC[C@]2(C(=O)O)CC[C@]3(C)C(=CC[C@@H]4[C@@]5(C)CC[C@H](O)C(C)(C)[C@@H]5CC[C@]43C)[C@@H]2[C@]1(C)O` [Pomolic acid] was tested, and the IC50 was > 100 µM.

Same assay, conditions: primer-extension PAGE assay, 150 nM RTC, 5% DMSO, 30 min preincubation at 37 °C; mean and SD of at least 3 independent experiments
In the case of `CS(=O)(=O)c1cccc(C[C@H](NC(=O)c2c(Cl)cc3c(c2Cl)CCN(C(=O)c2ccc4ccoc4c2)C3)C(=O)O)c1` [Lifitegrast, reference compound], the IC50 is reported as > 100 µM. With `Cc1c(-c2c(F)cc(C(N)=O)c3[nH]c4c(c23)CC[C@H](C(C)(C)O)C4)cccc1-n1c(=O)c2cccc(F)c2n(C)c1=O` [BMS-986142, reference compound] the IC50 was 22.8 ± 3.63 µM. With `CNc1cccc(NC(=O)N[C@@H]2N=C(c3ccccn3)c3ccccc3N(CC(=O)C(C)(C)C)C2=O)c1` [Sograzepide, reference compound] the IC50 was > 100 µM. In the case of `CN1C(=O)c2c(nn(Cc3ccc(-c4cccc(F)n4)cc3)c2Nc2ccccc2)N2C1=N[C@@H]1CCC[C@@H]12` [Lenrispodun, reference compound], the IC50 is reported as 24.2 ± 8.68 µM. `Cc1ccc(C(=O)Nc2ccc(Oc3cc4cnn(C)c4cc3-c3cn[nH]c3)c(F)c2)c(=O)n1-c1ccc(F)cc1` [Merestinib, reference compound] was tested, and the IC50 was > 100 µM. `Cc1cc(Nc2ncnc3ccc(NC4=NC(C)(C)CO4)cc23)ccc1Oc1ccn2ncnc2c1` [Tucatinib, reference compound] was tested, and the IC50 was > 100 µM. `C[C@@H]1CC[C@]2(C(=O)O)CC[C@]3(C)C(=CC[C@@H]4[C@@]5(C)CC[C@H](O)[C@@](C)(CO)[C@@H]5CC[C@]43C)[C@@H]2[C@]1(C)O` [Rotundic acid] was tested, and the IC50 was > 100 µM. Work on `Cc1cnc(C(=O)N[C@H]2CCCCC/C=C\[C@@H]3C[C@@]3(C(=O)NS(=O)(=O)C3CC3)NC(=O)[C@@H]3C[C@@H](Oc4nc5ccccc5c5ccccc45)CN3C2=O)cn1` [Paritaprevir, reference compound] yielded an IC50 of 42.2 ± 9.97 µM. With `CC(C)CC(=O)Nc1cncc(-c2ccc3[nH]nc(-c4nc5c(-c6cccc(F)c6)cncc5[nH]4)c3c2)c1` [Adavivint, reference compound] the IC50 was > 100 µM. `CO[C@H]1/C=C/O[C@@]2(C)Oc3c(C)c(O)c4c(O)c(c5c(nc6cc(C)ccn65)c4c3C2=O)NC(=O)/C(C)=C\C=C\[C@H](C)[C@H](O)[C@@H](C)[C@@H](O)[C@@H](C)[C@H](OC(C)=O)[C@@H]1C` [Rifaximin, reference compound] was tested, and the IC50 was > 100 µM. `CC(C)(C)NC(=O)c1ccc(Oc2cc(F)c(CC(=O)O)cc2Cl)c(NS(=O)(=O)c2ccc(C3CC3)cc2Cl)c1` [Vidupiprant, reference compound] gave an IC50 of 63.5 ± 24.3 µM.

Same assay, conditions: read-out: IC50: compound concentration required to inhibit by 50% the SARS-CoV-2 RTC enzymatic activity
`O=C(c1ccccc1Cl)c1cccnc1-c1nnn(Cc2cc(C(F)(F)F)cc(C(F)(F)F)c2)c1-c1ccncc1` [Tradipitant, reference compound] was tested, and the IC50 was > 100 µM. `C=C(C)[C@@H]1CC[C@]2(C(=O)O)CC[C@]3(C)[C@H](CC[C@@H]4[C@@]5(C)CC[C@H](O[C@@H]6OC[C@H](O)[C@H](O)[C@H]6O[C@@H]6O[C@@H](C)[C@H](O)[C@@H](O)[C@H]6O)[C@@](C)(CO)[C@@H]5CC[C@]43C)[C@@H]12` [Pulchinenoside A] showed an IC50 of 24.7 ± 0.42 µM. `O=C(NCC(O)CNC(=O)/C(=C\c1ccco1)NC(=O)c1ccccc1)/C(=C\c1ccco1)NC(=O)c1ccccc1` [N-[(E)-3-[[3-[[(E)-2-benzamido-3-(furan-2-yl)prop-2-enoyl]amino]-2-hydroxypropyl]amino]-1-(furan-2-yl)-3-oxoprop-1-en-2-yl]benzamide] was tested, and the IC50 was 90.1 ± 14 µM. With `C[C@H](CC[C@@H](O[C@@H]1O[C@H](CO)[C@@H](O)[C@H](O)[C@H]1O)C(C)(C)O)[C@H]1CC[C@@]2(C)[C@@H]3CC=C4[C@@H](CC[C@H](O[C@@H]5O[C@H](CO)[C@@H](O)[C@H](O)[C@H]5O)C4(C)C)[C@]3(C)[C@H](O)C[C@]12C` [Mogroside IIe] the IC50 was > 100 µM. In the case of `CC1=C2C[C@H]3[C@@H](CC(=O)[C@H]4C[C@@H](O)CC[C@@]43C)[C@@H]2CC[C@]12O[C@@H]1C[C@H](C)CN[C@H]1[C@H]2C` [Peimisine], the IC50 is reported as > 100 µM. With `CC(C)=CCC[C@@](C)(O)[C@H]1CC[C@]2(C)[C@@H]1[C@H](O)C[C@@H]1[C@@]3(C)CC[C@H](O[C@@H]4O[C@H](CO)[C@@H](O)[C@H](O)[C@H]4O)C(C)(C)[C@@H]3CC[C@]12C` [20(R)-Ginsenoside Rh2] the IC50 was > 100 µM. Compound `C[C@H]1O[C@@H](O[C@H]2CC[C@@]3(C)[C@@H](CC[C@]4(C)[C@@H]3C=CC3=C5CC(C)(C)CC[C@]5(CO)[C@H](O)C[C@]34C)[C@]2(C)CO)[C@H](O)[C@@H](O[C@@H]2O[C@H](CO)[C@@H](O)[C@H](O)[C@H]2O)[C@H]1O` [Saikosaponin B2] has an IC50 of 54.6 ± 13.6 µM. In the case of `C=CCOc1cccc(C(=O)[C@@H]2[C@@H]3CCCN3[C@]3(C(=O)Nc4c(C)cc(C)cc43)[C@@]23C(=O)Nc2ccccc23)c1` [(1'S,3R,3'S,7a'S)-5'',7''-dimethyl-1'-{[3-(prop-2-en-1-yloxy)phenyl]carbonyl}-5',6',7',7a'-tetrahydro-1'H-dispiro[indole-3,2'-pyrrolizine-3',3''-indole]-2,2''(1H,1''H)-dione], the IC50 is reported as > 100 µM. With `CC(C)[C@@H](NC(=O)C1(c2ccccc2)CCN(C(=O)OC(C)(C)C)CC1)C(=O)N[C@@H](C(=O)O)c1ccccc1` [(2R)-[(N-{[1-(tert-butoxycarbonyl)-4-phenylpiperidin-4-yl]carbonyl}-D-valyl)amino](phenyl)ethanoic acid] the IC50 was > 100 µM. `C[C@H]1CC[C@@H]2N(C1)C[C@H]1[C@@H]3C[C@H]4[C@@H](CC(=O)[C@H]5C[C@@H](O[C@@H]6O[C@H](CO)[C@@H](O)[C@H](O)[C@H]6O)CC[C@@]54C)[C@@H]3CC[C@H]1[C@]2(C)O` [Imperialine 3-beta-D-glucoside] was tested, and the IC50 was > 100 µM. `O=C(O[C@@H]1Cc2c(O)cc(O)cc2O[C@@H]1c1cc(=O)c(O)c2c(O)c(O)cc([C@H]3Oc4cc(O)cc(O)c4C[C@H]3O)c2c1)c1cc(O)c(O)c(O)c1` [Theaflavin 3-gallate] gave an IC50 of 19.8 ± 3.49 µM. Work on `COc1ccc2cc(-c3cc(-c4cc(Cl)cc(Cl)c4)nn3[C@@H](C)c3ccc(C(=O)NCCC(=O)O)cc3)ccc2c1` [3-[[4-[(1S)-1-[3-(3,5-dichlorophenyl)-5-(6-methoxynaphthalen-2-yl)pyrazol-1-yl]ethyl]benzoyl]amino]propanoic acid, reference compound] yielded an IC50 of 11.8 ± 6.43 µM. Compound `Cc1ccccc1NC(=O)Nc1ccc(CN2C(=O)N([C@@H](CC(C)C)C(=O)N[C@@H](CC(=O)O)c3ccccc3)C(=O)C2(C)C)cc1` [HMR1031, reference compound] has an IC50 of 91.2 ± 4.88 µM. In the case of `CC(C)=CCC[C@@](C)(O)[C@H]1CC[C@]2(C)[C@@H]1[C@H](O)C[C@@H]1[C@@]3(C)CC[C@H](O)C(C)(C)[C@@H]3[C@@H](O[C@@H]3O[C@H](CO)[C@@H](O)[C@H](O)[C@H]3O)C[C@]12C` [(20R)-Ginsenoside Rh1], the IC50 is reported as > 100 µM. For `C[C@@H]1CC[C@@]2(OC1)O[C@H]1C[C@H]3[C@@H]4CC=C5C[C@@H](O[C@@H]6O[C@H](CO)[C@@H](O)[C@H](O)[C@H]6O[C@@H]6O[C@@H](C)[C@H](O)[C@@H](O)[C@H]6O)CC[C@]5(C)[C@H]4CC[C@]3(C)[C@@]1(O)[C@@H]2C` [(2S,3R,4R,5R,6S)-2-[(2R,3R,4S,5S,6R)-4,5-dihydroxy-6-(hydroxymethyl)-2-[(1R,2S,4S,5'R,6R,7S,8S,9S,12S,13R,16S)-8-hydroxy-5',7,9,13-tetramethylspiro[5-oxapentacyclo[10.8.0.02,9.04,8.013,18]icos-18-ene-6,2'-oxane]-16-yl]oxyoxan-3-yl]oxy-6-methyloxane-3,4,5-triol], the IC50 was > 100 µM. For `CC#C/C(=N/OC[C@H]1COCCN1)c1ccc2ncnc(Nc3ccc(OCc4cccc(F)c4)c(Cl)c3)c2c1` [N-[3-chloro-4-[(3-fluorophenyl)methoxy]phenyl]-6-[(E)-N-[[(3R)-morpholin-3-yl]methoxy]-C-prop-1-ynylcarbonimidoyl]quinazolin-4-amine, reference compound], the IC50 was > 100 µM. With `C[C@@H]1CC[C@@]2(OC1)O[C@H]1C[C@H]3[C@@H]4CC=C5C[C@@H](O[C@@H]6O[C@H](CO)[C@@H](O)[C@H](O)[C@H]6O[C@@H]6O[C@@H](C)[C@H](O)[C@@H](O)[C@H]6O)CC[C@]5(C)[C@H]4CC[C@]3(C)[C@H]1[C@@H]2C` [Prosapogenin A] the IC50 was > 100 µM. With `CC1(C)CC[C@]2(C)CC[C@]3(C)C(=CC[C@@H]4[C@@]5(C)CC[C@@H](O)[C@](C)(C(=O)O)[C@@H]5CC[C@]43C)[C@@H]2C1` [Alpha-Boswellic acid] the IC50 was 93.5 ± 9.14 µM.
